The text below walks through data of PubChem BioAssay AID2811 (Southern Research Specialized Biocontainment Screening …, 2010).

This experiment concerns S. Typhi WT vs phoP-, polymyxin IC50 shift, OD600 24 h. The experiment can be described thus: polymyxin IC50 shift in S. Typhi, Salmonella typhi, set 2 (AID 2811). The conditions noted are these: stronger effect = lower value; for polymyxin IC50 shift difference (WT - phoP-) / polymyxin IC50 shift: at 150 µM.
Where [1] appears, read: measured here: phoP- strain shift.
The mark [2] stands for this setting: measured here: wild-type strain shift.

Activity calls are given as the source filed them. The rule behind the calls is not given here.

`O=C1C2=C(Nc3ccccc3SC2c2ccc(I)cc2)c2ccccc21` (centres undefined): the polymyxin IC50 shift difference (WT - phoP-) was -8.99 (inactive). Besides, the polymyxin IC50 (WT polymyxin IC50 at 150 uM) is 25.8 µM. Besides, the polymyxin IC50 shift under setting [1] was found to be 1.81. In addition, under setting [2], the polymyxin IC50 shift was -7.18. In addition, the polymyxin IC50 (phoP- polymyxin IC50 at 150 uM) was 0.04 µM.
Consider `COc1ccc(CNC(=S)Nc2ccncc2)cc1`, for which the polymyxin IC50 shift difference (WT - phoP-) is -2.86 (inactive). The polymyxin IC50 (WT polymyxin IC50 at 150 uM) came to 5.14 µM. Further, the polymyxin IC50 shift under setting [1] is -0.186. The polymyxin IC50 shift under setting [2] was -3.04. The polymyxin IC50 (phoP- polymyxin IC50 at 150 uM) is 4.55 µM.
As for `CCn1cc(C(=O)O)c(=O)c2cc(F)c(N3CCN(C(=S)Nc4ccccc4C(F)(F)F)CC3)cc21`, the polymyxin IC50 shift difference (WT - phoP-) is -9.73 (inactive). Besides, for the setting “WT polymyxin IC50 at 150 uM”, the polymyxin IC50 was 2.53 µM. Also, under setting [1], the polymyxin IC50 shift came out at 9.16. Further, the polymyxin IC50 shift under setting [2] is -0.568. The polymyxin IC50 (phoP- polymyxin IC50 at 150 uM) came out at 2.76 µM.
With `COc1cccc(C2Sc3ccccc3NC3=C2C(=O)c2ccccc23)c1` (centres undefined), the polymyxin IC50 shift difference (WT - phoP-) is -3.66 (inactive). Further, the polymyxin IC50 (WT polymyxin IC50 at 150 uM) was 2.58 µM. Moreover, the polymyxin IC50 shift under setting [1] stood at 4.99. The polymyxin IC50 shift under setting [2] turned out to be 1.33. In addition, the polymyxin IC50 (phoP- polymyxin IC50 at 150 uM) was 11.2 µM.
On to `O=C(Nc1ccc(Br)cc1)N1CCCN(Cc2ccccc2F)C1`, for which the polymyxin IC50 shift difference (WT - phoP-) was -5.49 (inactive). Further, under “WT polymyxin IC50 at 150 uM”, the polymyxin IC50 worked out at 7.08 µM. Further, under setting [1], the polymyxin IC50 shift worked out at 1.55. The polymyxin IC50 shift under setting [2] is -3.93. For the same molecule, the polymyxin IC50 (phoP- polymyxin IC50 at 150 uM) amounted to 2.62 µM.
On to `O=C1C2=C(Nc3ccccc3SC2c2ccsc2)c2ccccc21` (centres undefined), for which the polymyxin IC50 shift difference (WT - phoP-) was -25.9 (inactive). Moreover, the polymyxin IC50 (WT polymyxin IC50 at 150 uM) is 21.5 µM. Under setting [1], the polymyxin IC50 shift worked out at 6.12. The polymyxin IC50 shift under setting [2] is -19.7.
